Reference: US20250262201A1, “COMPOUNDS AND METHODS USEFUL FOR STABILIZING PHENYLALANINE HYDROXYLASE MUTATIONS” (Agios Pharmaceuticals, Inc., priority 2022, published 2025)

Target: T1, human PAH with the R408W mutation (Homo sapiens, UniProt P00439, R408W)
T1 construct: expressed in transfected cells
T1 sequence (P00439 1-452 R408W): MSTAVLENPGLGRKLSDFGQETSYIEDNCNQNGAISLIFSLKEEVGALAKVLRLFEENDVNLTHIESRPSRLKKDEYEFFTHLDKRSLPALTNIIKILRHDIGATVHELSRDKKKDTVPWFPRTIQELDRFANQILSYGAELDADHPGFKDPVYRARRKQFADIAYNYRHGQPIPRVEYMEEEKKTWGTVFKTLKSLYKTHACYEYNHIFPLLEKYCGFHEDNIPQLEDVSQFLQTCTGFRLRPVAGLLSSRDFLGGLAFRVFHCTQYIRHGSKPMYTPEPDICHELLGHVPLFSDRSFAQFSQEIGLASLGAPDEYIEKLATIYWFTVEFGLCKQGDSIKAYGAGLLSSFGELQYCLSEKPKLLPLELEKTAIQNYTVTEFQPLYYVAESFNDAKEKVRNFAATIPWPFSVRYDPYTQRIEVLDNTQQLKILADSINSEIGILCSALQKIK
Experiment: Cell Based Phenylalanine Flux Assay
Conditions: A375 cells expressing human R408W PAH; 24 hrs compound incubation; 13C-Tyrosine by LC-MS; average where tested multiple times; read-out: AC50

SMILES | AC50 [µM]
CC(C)(O)c1nc(Br)c(C(=O)N2CCc3[nH]cnc3C2c2ccc3ccccc3n2)o1 (stereo in doubt) [Example 97, (R)-(4-bromo-2-(2-hydroxypropan-2-yl)oxazol-5-yl)(4-(quinolin-2-yl)-6,7-dihydro-1H-imidazo[4,5-c]pyridin-5(4H)-yl)methanone] | < 0.5
CC(C)(O)c1nc(Br)c(C(=O)N2CCc3[nH]cnc3C2c2ccc3ccccc3n2)o1 (stereo in doubt) [Example 98, (S)-(4-bromo-2-(2-hydroxypropan-2-yl)oxazol-5-yl)(4-(quinolin-2-yl)-6,7-dihydro-1H-imidazo[4,5-c]pyridin-5(4H)-yl)methanone] | 1 to 5
Cc1nc([C@H](C)O)oc1C(=O)N1CCc2[nH]cnc2C1c1ccc2ccccc2n1 (stereo in doubt) [Example 99, (2-((S)-1-hydroxyethyl)-4-methyloxazol-5-yl)((R)-4-(quinolin-2-yl)-6,7-dihydro-1H-imidazo[4,5-c]pyridin-5(4H)-yl)methanone] | 1 to 5
Cc1nc(C2(O)CCC2)oc1C(=O)N1CCc2[nH]cnc2C1c1ccc2ccccc2n1 (stereo in doubt) [Example 101, (R)-(2-(1-hydroxycyclobutyl)-4-methyloxazol-5-yl)(4-(quinolin-2-yl)-6,7-dihydro-1H-imidazo[4,5-c]pyridin-5(4H)-yl)methanone] | 0.5 to 1
Cc1nc(C2(O)CCC2)oc1C(=O)N1CCc2[nH]cnc2C1c1ccc2ccccc2n1 (stereo in doubt) [Example 102, (S)-(2-(1-hydroxycyclobutyl)-4-methyloxazol-5-yl)(4-(quinolin-2-yl)-6,7-dihydro-1H-imidazo[4,5-c]pyridin-5(4H)-yl)methanone] | > 5
Cc1nc([C@@H](C)O)oc1C(=O)N1CCc2[nH]cnc2C1c1ccc2ccccc2n1 (stereo in doubt) [Example 111, (2-((R)-1-hydroxyethyl)-4-methyloxazol-5-yl)((R)-4-(quinolin-2-yl)-6,7-dihydro-1H-imidazo[4,5-c]pyridin-5(4H)-yl)methanone] | 0.5 to 1
CC(C)(O)c1nc(Cl)c(C(=O)N2CCc3[nH]cnc3C2c2ccc3ccccc3n2)o1 (stereo in doubt) [Example 113, (R)-(4-chloro-2-(2-hydroxypropan-2-yl)oxazol-5-yl)(4-(quinolin-2-yl)-6,7-dihydro-1H-imidazo[4,5-c]pyridin-5(4H)-yl)methanone] | < 0.5
CC(C)(O)c1nc(Cl)c(C(=O)N2CCc3[nH]cnc3C2c2ccc3ccccc3n2)o1 (stereo in doubt) [Example 114, (S)-(4-chloro-2-(2-hydroxypropan-2-yl)oxazol-5-yl)(4-(quinolin-2-yl)-6,7-dihydro-1H-imidazo[4,5-c]pyridin-5(4H)-yl)methanone] | > 5
Cc1nc(C(C)(C)C#N)oc1C(=O)N1CCc2[nH]cnc2C1c1ccc2ccccc2n1 (stereo in doubt) [Example 117, (S)-2-methyl-2-(4-methyl-5-(4-(quinolin-2-yl)-4,5,6,7-tetrahydro-1H-imidazo[4,5-c]pyridine-5-carbonyl)oxazol-2-yl)propanenitrile] | 1 to 5
Cc1nc(C(C)(C)C#N)oc1C(=O)N1CCc2[nH]cnc2C1c1ccc2ccccc2n1 (stereo in doubt) [Example 118, (R)-2-methyl-2-(4-methyl-5-(4-(quinolin-2-yl)-4,5,6,7-tetrahydro-1H-imidazo[4,5-c]pyridine-5-carbonyl)oxazol-2-yl)propanenitrile] | < 0.5
C[C@@H](O)c1nc(C(F)F)c(C(=O)N2CCc3[nH]cnc3C2c2ccc3ccccc3n2)o1 (stereo in doubt) [Example 119, (4-(difluoromethyl)-2-((R)-1-hydroxyethyl)oxazol-5-yl)((S)-4-(quinolin-2-yl)-6,7-dihydro-1H-imidazo[4,5-c]pyridin-5(4H)-yl)methanone] | 1 to 5
C[C@@H](O)c1nc(C(F)F)c(C(=O)N2CCc3[nH]cnc3C2c2ccc3ccccc3n2)o1 (stereo in doubt) [Example 120, (4-(difluoromethyl)-2-((R)-1-hydroxyethyl)oxazol-5-yl)((R)-4-(quinolin-2-yl)-6,7-dihydro-1H-imidazo[4,5-c]pyridin-5(4H)-yl)methanone] | < 0.5
C[C@H](O)c1nc(C(F)F)c(C(=O)N2CCc3[nH]cnc3C2c2ccc3ccccc3n2)o1 (stereo in doubt) [Example 121, (4-(difluoromethyl)-2-((S)-1-hydroxyethyl)oxazol-5-yl)((S)-4-(quinolin-2-yl)-6,7-dihydro-1H-imidazo[4,5-c]pyridin-5(4H)-yl)methanone] | 1 to 5
C[C@H](O)c1nc(C(F)F)c(C(=O)N2CCc3[nH]cnc3C2c2ccc3ccccc3n2)o1 (stereo in doubt) [Example 122, (4-(difluoromethyl)-2-((S)-1-hydroxyethyl)oxazol-5-yl)((R)-4-(quinolin-2-yl)-6,7-dihydro-1H-imidazo[4,5-c]pyridin-5(4H)-yl)methanone] | < 0.5

Other lines, results leading:

AC50 [µM] | SMILES
< 0.5 | Cn1nccc1C(=O)N1CCc2[nH]cnc2C1c1ccc2ccccc2n1 (stereo in doubt) [Example 93, (R)-(1-methyl-1H-pyrazol-5-yl)(4-(quinolin-2-yl)-6,7-dihydro-1H-imidazo[4,5-c]pyridin-5(4H)-yl)methanone]
1 to 5 | Cn1nccc1C(=O)N1CCc2[nH]cnc2C1c1ccc2ccccc2n1 (stereo in doubt) [Example 94, (S)-(1-methyl-1H-pyrazol-5-yl)(4-(quinolin-2-yl)-6,7-dihydro-1H-imidazo[4,5-c]pyridin-5(4H)-yl)methanone]
1 to 5 | O=C(c1nnc(-c2ccn(C(F)F)n2)o1)N1CCc2[nH]cnc2C1c1ccc2ccccc2n1 (stereo in doubt) [Example 95, (S)-(5-(1-(difluoromethyl)-1H-pyrazol-3-yl)-1,3,4-oxadiazol-2-yl)(4-(quinolin-2-yl)-6,7-dihydro-1H-imidazo[4,5-c]pyridin-5(4H)-yl)methanone]
1 to 5 | Cc1ccc(-c2nnc(C(=O)N3CCc4[nH]cnc4C3c3ccc4ccccc4n3)o2)nc1 (stereo in doubt) [Example 103, (S)-(5-(5-methylpyridin-2-yl)-1,3,4-oxadiazol-2-yl)(4-(quinolin-2-yl)-6,7-dihydro-1H-imidazo[4,5-c]pyridin-5(4H)-yl)methanone]
< 0.5 | Cc1ccc(-c2nnc(C(=O)N3CCc4[nH]cnc4C3c3ccc4ccccc4n3)o2)nc1 (stereo in doubt) [Example 104, (R)-(5-(5-methylpyridin-2-yl)-1,3,4-oxadiazol-2-yl)(4-(quinolin-2-yl)-6,7-dihydro-1H-imidazo[4,5-c]pyridin-5(4H)-yl)methanone]
0.5 to 1 | CC(C)(F)c1nnc(C(=O)N2CCc3[nH]cnc3C2c2ccc3ccccc3n2)o1 (stereo in doubt) [Example 105, (R)-(5-(2-fluoropropan-2-yl)-1,3,4-oxadiazol-2-yl)(4-(quinolin-2-yl)-6,7-dihydro-1H-imidazo[4,5-c]pyridin-5(4H)-yl)methanone]
1 to 5 | CC(C)(F)c1nnc(C(=O)N2CCc3[nH]cnc3C2c2ccc3ccccc3n2)o1 (stereo in doubt) [Example 106, (S)-(5-(2-fluoropropan-2-yl)-1,3,4-oxadiazol-2-yl)(4-(quinolin-2-yl)-6,7-dihydro-1H-imidazo[4,5-c]pyridin-5(4H)-yl)methanone]
0.5 to 1 | O=C(c1nnc(-c2cc(C(F)(F)F)ccn2)o1)N1CCc2[nH]cnc2C1c1ccc2ccccc2n1 (stereo in doubt) [Example 107, (R)-(4-(quinolin-2-yl)-6,7-dihydro-1H-imidazo[4,5-c]pyridin-5(4H)-yl)(5-(4-(trifluoromethyl)pyridin-2-yl)-1,3,4-oxadiazol-2-yl)methanone]
1 to 5 | O=C(c1nnc(-c2cc(C(F)(F)F)ccn2)o1)N1CCc2[nH]cnc2C1c1ccc2ccccc2n1 (stereo in doubt) [Example 108, (S)-(4-(quinolin-2-yl)-6,7-dihydro-1H-imidazo[4,5-c]pyridin-5(4H)-yl)(5-(4-(trifluoromethyl)pyridin-2-yl)-1,3,4-oxadiazol-2-yl)methanone]
1 to 5 | O=C(c1cn(-c2ccccn2)nc1Cl)N1CCc2[nH]cnc2C1c1ccc2ccccc2n1 (stereo in doubt) [Example 109, (R)-(3-chloro-1-(pyridin-2-yl)-1H-pyrazol-4-yl)(4-(quinolin-2-yl)-6,7-dihydro-1H-imidazo[4,5-c]pyridin-5(4H)-yl)methanone]
1 to 5 | O=C(c1cn(-c2ccccn2)nc1Cl)N1CCc2[nH]cnc2C1c1ccc2ccccc2n1 (stereo in doubt) [Example 110, (S)-(3-chloro-1-(pyridin-2-yl)-1H-pyrazol-4-yl)(4-(quinolin-2-yl)-6,7-dihydro-1H-imidazo[4,5-c]pyridin-5(4H)-yl)methanone]
< 0.5 | O=C(c1nnc(-c2cc[nH]n2)o1)N1CCc2[nH]cnc2C1c1ccc2ccccc2n1 (stereo in doubt) [Example 115, (R)-(5-(1H-pyrazol-3-yl)-1,3,4-oxadiazol-2-yl)(4-(quinolin-2-yl)-6,7-dihydro-1H-imidazo[4,5-c]pyridin-5(4H)-yl)methanone]
1 to 5 | O=C(c1nnc(-c2cc[nH]n2)o1)N1CCc2[nH]cnc2C1c1ccc2ccccc2n1 (stereo in doubt) [Example 116, (S)-(5-(1H-pyrazol-3-yl)-1,3,4-oxadiazol-2-yl)(4-(quinolin-2-yl)-6,7-dihydro-1H-imidazo[4,5-c]pyridin-5(4H)-yl)methanone]
